Experiments:
[1] = system: SF 539 central nervous system cancer cells; test: Toxicity testing on cancer cell lines (MTT); format: cell-based; settings: 72 hours, n=4, read-out: Cell Line IC50, SF 539
Experimental: (§1) The seven cell lines were: estrogen dependent MCF-7 breast cancer cells, non estrogen dependent MDA 231 breast cancer cells, SF 539 central nervous system cancer cells, HT29 colon cancer cells, Paca 2 pancreatic cancer cells, PC3 prostate cancer cells, and A549 lung cancer cells. For each cell line, exponentially growing cells were trypsinized and seeded into individual wells of a 96-well plate. Cells were maintained in a humidified, 5% CO2 incubator at 37° C. for 24 hours. The next day, fresh media was added along with 1 μl of a stock solution of peptide to give final peptide concentrations of 0.3 μM, 1 μM, 3 μM, 10 μM, 30 μM, and 100 μM (n=4). Doxorubicin was tested as a positive control. After incubating the cells for 72 hours, to each well was added 20 μl of 0.5% MTT {3-([…])-2,5 diphenyl tetrazolium bromide} solution. The plates then were incubated for an additional 4 hours, at which time the absorbance at 570 nm was measured for each well using a microplate reader. The absorbance was plotted as function of peptide concentration, and IC50 values were calculated for each peptide for each cell line.

HT29 colon cancer cells = test: Toxicity testing on cancer cell lines (MTT); format: cell-based; settings: 72 hours, n=4, read-out: Cell Line IC50, HT29
Experimental: as §1

A549 lung cancer cells = test: Toxicity testing on cancer cell lines (MTT); format: cell-based; settings: 72 hours, n=4, read-out: Cell Line IC50, A549
Experimental: as §1

[2] = system: Paca 2 pancreatic cancer cells; test: Toxicity testing on cancer cell lines (MTT); format: cell-based; settings: 72 hours, n=4, read-out: Cell Line IC50, Paca 2
Experimental: as §1

[3] = system: estrogen dependent MCF-7 breast cancer cells; test: Toxicity testing on cancer cell lines (MTT); format: cell-based; settings: 72 hours, n=4, read-out: Cell Line IC50, MCF-7
Experimental: as §1

[4] = system: non estrogen dependent MDA 231 breast cancer cells; test: Toxicity testing on cancer cell lines (MTT); format: cell-based; settings: 72 hours, n=4, read-out: Cell Line IC50, MDA 231
Experimental: as §1

[5] = system: PC3 prostate cancer cells; test: Toxicity testing on cancer cell lines (MTT); format: cell-based; settings: 72 hours, n=4, read-out: Cell Line IC50, PC3
Experimental: as §1

[6] = system: MCF-7 breast cancer cells; test: Evaluation of apoptosis (Hoescht, Annexin V, propidium iodide staining); format: cell-based; settings: MCF-7 cells, 24 hours, 3 μM or 10 μM
Experimental: MCF-7 breast cancer cells were seeded in individual wells of a 96-well plate and were maintained for 24 hours in a humidified, 5% CO2 incubator at 37° C. The next day, fresh media was added along with 1 μl of a stock solution of KIP peptide […] [SEQ ID NO: 166] to give a final concentration of 3 μM or 10 μM (n=4). After incubating the cells for 24 hours, cells were treated with Hoescht dye for nuclear staining, propidium iodide to stain for DNA from necrotic cells, and Annexin V to visualize apoptotic cells.

CaMKIV = biological target: T1, CaMKIV (Homo sapiens, UniProt Q16566); settings: 1 μM AIP; cited from earlier work
T1 sequence (Q16566 1-473): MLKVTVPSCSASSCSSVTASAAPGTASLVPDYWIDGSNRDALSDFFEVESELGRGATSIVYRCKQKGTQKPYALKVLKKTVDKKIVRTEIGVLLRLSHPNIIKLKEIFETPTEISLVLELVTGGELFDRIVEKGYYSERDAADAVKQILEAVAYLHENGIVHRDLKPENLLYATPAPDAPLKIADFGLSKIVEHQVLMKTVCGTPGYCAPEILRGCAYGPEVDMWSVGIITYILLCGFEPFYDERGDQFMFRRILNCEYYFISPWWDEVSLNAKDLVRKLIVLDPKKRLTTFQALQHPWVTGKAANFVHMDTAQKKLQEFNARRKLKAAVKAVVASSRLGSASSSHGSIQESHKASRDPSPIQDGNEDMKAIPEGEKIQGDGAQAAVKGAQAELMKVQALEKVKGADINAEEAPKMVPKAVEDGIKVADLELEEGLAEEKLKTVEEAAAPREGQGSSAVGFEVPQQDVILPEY

PKA = settings: 1 μM AIP; cited from earlier work
PKC = settings: 1 μM AIP; cited from earlier work
[7] = system: Ca2+/calmodulin-dependent protein kinase II (CaMKII); settings: cited from earlier work
PKC β 1 (h) = biological target: T2, PKC β 1 (h) (Homo sapiens, UniProt P05771); test: kinase profiler assay (radiometric); format: biochemical; settings: @ = 30 μm peptide; less than 100 = kinase inhibition, greater than 100 = stimulation
T2 construct: purchased Upstate (Millipore) KinaseProfiler service
T2 sequence (P05771 whole entry): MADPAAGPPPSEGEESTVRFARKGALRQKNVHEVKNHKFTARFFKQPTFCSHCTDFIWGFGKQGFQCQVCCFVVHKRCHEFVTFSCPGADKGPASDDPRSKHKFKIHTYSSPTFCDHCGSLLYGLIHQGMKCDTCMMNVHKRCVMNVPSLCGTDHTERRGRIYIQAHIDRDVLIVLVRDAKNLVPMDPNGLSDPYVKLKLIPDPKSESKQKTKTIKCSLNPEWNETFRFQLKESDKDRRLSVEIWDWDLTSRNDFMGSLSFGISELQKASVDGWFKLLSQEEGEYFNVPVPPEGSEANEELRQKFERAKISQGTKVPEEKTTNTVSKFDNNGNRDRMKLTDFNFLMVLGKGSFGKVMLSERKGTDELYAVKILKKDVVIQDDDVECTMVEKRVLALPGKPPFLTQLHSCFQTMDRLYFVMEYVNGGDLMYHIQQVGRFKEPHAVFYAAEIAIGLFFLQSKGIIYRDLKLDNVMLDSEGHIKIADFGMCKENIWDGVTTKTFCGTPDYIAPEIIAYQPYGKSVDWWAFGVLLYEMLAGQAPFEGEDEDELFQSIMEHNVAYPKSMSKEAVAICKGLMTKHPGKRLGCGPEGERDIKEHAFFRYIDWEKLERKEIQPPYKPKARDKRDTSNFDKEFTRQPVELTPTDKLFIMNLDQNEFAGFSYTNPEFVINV
Description: (§2) KIP peptides […] [SEQ ID NO: 142], […] [SEQ ID NO: 173], and […] [SEQ ID NO: 163] were utilized to profile a variety of different kinases. The kinase profiler assay services provided by Upstate, a part of Millipore Corporation (Billerica, Mass.), were utilized to conduct the kinase profiles. The kinase profiler assays, which are radiometric, are based on measuring the amount of radioactive transfer from an ATP (y-^33P-ATP) to a substrate peptide using known concentrations of kinase enzyme, inhibitor, ATP, and buffer at defined time points and temperatures. Details on the reaction conditions for each kinase are available at www.millipore.com/drugdiscovery/dd3/KinaseProfiler. […] ROCK-1(h) (5-10 mU) was incubated with 8 mM MOPS pH 7.0, 0.2 mM EDTA, 30 i.IM of the peptide […] [SEQ ID NO: 189], 10 mM Mg acetate and y-^33P-ATP (specific activity approximately 500 cpm/pmol, concentration as required) in a final reaction volume of 25 pl. The reaction was initiated by the addition of the MgATP mixture in the absence and presence of inhibitor compounds. After incubation for 40 minutes at room temperature, the reaction was stopped by the addition of 5) 11 of a 3% phosphoric acid solution. 10 pl of the reaction mixture then was spotted onto a P30 filtermat. The filtermat was washed three times for 5 minutes in 75 mM phosphoric acid, once in methanol, dried and counted by scintillation counting. Where the kinase is uninhibited, the kinase phosphorylates a positively charged substrate with radioactive ATP, which then binds to a negatively charged filter membrane. Scintillation counts (radioactivity) directly correlate with kinase activity. […] All profile data less than 100 indicate kinase inhibition while data greater than 100 indicate kinase stimulation.

PKG1α (h) = biological target: T3, PKG1α (h) (Homo sapiens, UniProt Q13976); test: kinase profiler assay (radiometric); format: biochemical; settings: @ = 30 μm peptide; less than 100 = kinase inhibition, greater than 100 = stimulation
T3 construct: purchased Upstate (Millipore) KinaseProfiler service
T3 sequence (Q13976 1-671): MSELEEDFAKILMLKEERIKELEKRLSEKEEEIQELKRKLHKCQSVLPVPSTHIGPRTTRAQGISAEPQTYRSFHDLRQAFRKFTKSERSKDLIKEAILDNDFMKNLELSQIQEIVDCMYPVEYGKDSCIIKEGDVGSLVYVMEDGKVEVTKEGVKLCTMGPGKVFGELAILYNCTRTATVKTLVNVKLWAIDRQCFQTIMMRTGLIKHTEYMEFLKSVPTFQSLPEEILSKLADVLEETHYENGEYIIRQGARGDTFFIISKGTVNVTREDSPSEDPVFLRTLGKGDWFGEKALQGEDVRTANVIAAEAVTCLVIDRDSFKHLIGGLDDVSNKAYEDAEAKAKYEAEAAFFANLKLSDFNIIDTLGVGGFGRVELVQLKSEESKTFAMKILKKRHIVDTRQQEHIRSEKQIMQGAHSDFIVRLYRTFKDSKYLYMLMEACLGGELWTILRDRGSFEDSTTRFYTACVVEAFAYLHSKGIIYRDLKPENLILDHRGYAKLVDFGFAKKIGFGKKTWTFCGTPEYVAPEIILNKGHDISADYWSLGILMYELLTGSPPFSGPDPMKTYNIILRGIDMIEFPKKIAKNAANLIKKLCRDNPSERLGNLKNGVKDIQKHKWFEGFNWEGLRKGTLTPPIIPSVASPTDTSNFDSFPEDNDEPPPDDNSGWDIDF
Description: as §2

CC[C@H](C)[C@H](NC(=O)[C@H](CCCCN)NC(=O)[C@H](CCCCN)NC(=O)[C@H](CC(C)C)NC(=O)[C@H](Cc1c[nH]c2ccccc12)NC(=O)[C@H](C)NC(=O)[C@H](CCCCN)NC(=O)[C@@H](NC(=O)[C@H](CCCNC(=N)N)NC(=O)[C@H](CCCNC(=N)N)NC(=O)[C@@H](N)Cc1c[nH]cn1)[C@@H](C)CC)C(=O)N[C@@H](CCCCN)C(=O)N[C@@H](C)C(=O)N[C@@H](CC(C)C)C(=O)N[C@@H](C)C(=O)N[C@@H](CCCNC(=N)N)C(=O)N[C@@H](CCC(N)=O)C(=O)N[C@@H](CC(C)C)C(=O)NCC(=O)N[C@H](C(=O)N[C@@H](C)C(=O)N[C@@H](C)C(=O)O)C(C)C [Peptide 1]
IC50 [1]: 4.3 µM | IC50 (HT29 colon cancer cells): 6.7 µM | IC50 (A549 lung cancer cells): 8.7 µM | IC50 [2]: 9 µM | IC50 [3]: 1.6 µM | IC50 [4]: 9.3 µM | IC50 [5]: 6 µM | Annexin V staining relative to propidium iodide staining (apoptosis) [6]: annexin V staining was much more intense than propidium iodide staining

KKALRRQEAVDAL [AIP]
CaMKIV activity (CaMKIV): not affected | PKA activity (PKA): not affected | PKC activity (PKC): not affected | CaMKII activity ([7]; 1 μM AIP): completely inhibited | IC50 [7]: 0.1 µM

WLRRIKAWLRRIKALNRQLGVAA
Profile-1, PKC β 1 (h) (PKC β 1 (h)): 8 | Profile-1, PKG1α (h) (PKG1α (h)): 16

Source: patent US8741849B2, “Kinase inhibitors and uses thereof” (priority 2007, dated 2014)
